Patent US20260116845A1, “LIPIDS AND COMPOSITIONS THEREOF” (Kernal Biologics, Inc., priority 2023, published 2026)

What was measured:
AML12 Cell Line = test: Transfection of AML12 Cell Line with FLuc mRNA LNPs (ONE-Glo EX luciferase signal); format: cell-based; details: 200 ng Fluc mRNA-LNP, 24 hours; Table 4
Procedure: (§1) mRNA encapsulated lipid nanoparticles (mRNA LNPs) were formulated using microfluidic mixing with a PNI Ignite instrument. Briefly, lipids (ionizable: structural: helper: PEG) were dissolved in ethanol and mixed with and aqueous solution of mRNA. These mRNA-loaded dispersions were then neutralized via a buffer exchange with a pre-determined buffer overnight. Afterwards, formed LNPs were concentrated with Amicon filter centrifugation, filtered, concentration of mRNA determined through a ribogreen assay, and frozen at −80° C. until use.
(§2) Cell lines were grown to confluence in T75 flasks using complete media of DMEM-F12 for AML12 and DMEM for both B16F10 and MC38.K. Cells were plated in a white 96 flat-well plate (AML12=20,000 cells/well, B16F10 and MC38.K=5,000 cells/well) with their respected media. Lipid nanoparticles were first diluted to 50 μg/ml using Opti-MEM and pre-incubated with mouse serum for 30 minutes to give an LNP concentration of 8 μg/ml. Cell media was replaced with Opti-MEM and LNPs were added to cells (200 ng of mRNA-LNP), placed back in the incubator, and allowed to transfect for 24 hours. Afterwards, 100 μl of Promega's ONE-Glo™ EX Luciferase Assay System or Promega's CellTiter-Glo® Luminescent Cell Viability Assay was added and mixed in their respective wells, followed by recording luminescence signals on a Thermo Scientific Varioskan LUX multimode microplate reader. The results are shown in FIG. 1, FIG. 2, FIG. 3, FIG. 4, FIG. 5, FIG. 6, FIG. 10, FIG. 11, and FIG. 21.

B16F10 Cell Line = test: Transfection of B16F10 Cell Line with FLuc mRNA LNPs (ONE-Glo EX luciferase signal); format: cell-based; details: 200 ng Fluc mRNA-LNP, 24 hours; Table 4
Procedure: as §1, §2

MC38.K Cell Line = test: Transfection of MC38.K Cell Line with FLuc mRNA LNPs (ONE-Glo EX luciferase signal); format: cell-based; details: 200 ng Fluc mRNA-LNP, 24 hours; Table 4
Procedure: as §1, §2

Liver = test: Ex-vivo luminescence signal from liver after IV Fluc mRNA LNPs in CD1 mice (IVIS); details: tail vein 1.0 mg/kg Day 0 and Day 2, imaging 18 hours after second dose, Table 4

| Compound | Total Luciferin Signal (RLU) In Vitro - AML12 (AML12 Cell Line) | Total Luciferin Signal (RLU) In Vitro - B16F10 (B16F10 Cell Line) | Total Luciferin Signal (RLU) In Vitro - MC38.K (MC38.K Cell Line) | Total Liver Tissue Luciferin Signal (Photons/s) Ex-vivo - CD1 (Liver) | Total Liver Tissue Luciferin Signal (Photons/s) In Vitro - CD1 (Liver) |
| --- | --- | --- | --- | --- | --- |
| CCCCCCCCCOC(=O)CCCCCCCN(CCCCCCCC(=O)OC(CCCCCCCC)CCCCCCCCF)CCN(C)C (stereo not shown) [Compound 56, 1-fluoroheptadecan-9-yl 8-((2-(dimethylamino)ethyl)(8-(nonyloxy)-8-oxooctyl)amino)octanoate] | 6.63E+06 RLU | 1.54E+07 RLU | 2.52E+07 RLU | 1.77E+09 Photons/s | – |
| CCCCCCCCCCCOC(=O)CCCCCN(CCO)CCCCCCCC(=O)OC(CCCCCCCC)CCCCCCCF (stereo not shown) [Compound 24] | 5.98E+05 RLU | 3.37E+05 RLU | 7.60E+05 RLU | 1.04E+10 Photons/s | – |
| CCCCCCCCC(CCCCCCCC)C(=O)OCCCCCCCN(CCO)CCCCCCCOC(=O)CCCCCCCCC(C)C [Compound 14] | 2.94E+06 RLU | 5.12E+06 RLU | 4.71E+06 RLU | 1.93E+09 Photons/s | – |
| CCCCCCCCC(CCCCCCCC)C(=O)OCCCCCCCN(CCO)CCCCCCCOC(=O)CCCCCCCC=C(C)C [Compound 20] | 7.65E+05 RLU | 4.65E+05 RLU | 7.88E+05 RLU | 7.61E+09 Photons/s | – |
| CCCCCCCCC(CCCCCCCC)C(=O)OCCCCCCCN(CCCCCC(=O)OCCCCCCCCC(C)C)CCOC(=O)CCCN(C)CCO [Compound 8] | 1.43E+05 RLU | 9.69E+05 RLU | 3.40E+06 RLU | 2.13E+08 Photons/s | – |
| CCCCCCCCC(CCCCCCCCF)OC(=O)CCCCCCCN(CCO)CCCCCCC(C)C(=O)OCCCCCCCCC(C)C (stereo not shown) [Compound 66, 9-methyldecyl 8-((8-((1-fluoroheptadecan-9-yl)oxy)-8-oxooctyl)(2-hydroxyethyl)amino)-2-methyloctanoate] | 1.16E+06 RLU | 1.12E+06 RLU | 5.75E+06 RLU | 9.44E+09 Photons/s | – |
| CCCCCCCCCOC(=O)CCCCCCCN(CCO)CCCCCCCC(=O)OCC(CCCCCC)CCCCCCCCF (stereo not shown) [Compound 72, 10-fluoro-2-hexyldecyl 8-((2-hydroxyethyl)(8-(nonyloxy)-8-oxooctyl)amino)octanoate] | 2.78E+06 RLU | 7.23E+05 RLU | 5.53E+06 RLU | 3.60E+09 Photons/s | – |
| CCCCCCCCC(CCCCCCCCF)OC(=O)CCCCCN(CCO)CCCCCC(=O)OCCCCCCCCCCC(C)C (stereo not shown) [Compound 70, 1-fluoroheptadecan-9-yl 6-((2-hydroxyethyl)(6-((11-methyldodecyl)oxy)-6-oxohexyl)amino)hexanoate] | 7.41E+05 RLU | 7.68E+05 RLU | 5.15E+06 RLU | 4.87E+09 Photons/s | – |
| CCCCCCCCC(CCCCCCCC)C(=O)OCCCCCCCN(CCO)CCCCCC(=O)OCCCCCCCCC(C)C [Compound 6] | 8.42E+05 RLU | 5.77E+05 RLU | 9.66E+05 RLU | 2.10E+09 Photons/s | – |
| CCCCCCCCCOC(=O)CCCCCN(CCO)CCCCCCCC(=O)OC(CCCCCCCC)CCCCCCCF (stereo not shown) [Compound 25] | 1.09E+05 RLU | 4.43E+05 RLU | 9.18E+05 RLU | 2.05E+09 Photons/s | – |
| CCCCCCCCCC(=O)OCCCCCCCN(CCO)CCCCCCCC(=O)OC(CCCCCCCC)CCCCCCCCF (stereo not shown) [Compound 32] | 1.53E+05 RLU | 2.09E+05 RLU | 4.43E+05 RLU | 3.13E+09 Photons/s | – |
| CCCCCCCCC(CCCCCCCC)OC(=O)CCCCCCCN(CCCCCCCOC(=O)CCCCCCCCC(C)C)CCOC(=O)CCCN(C)C [Compound 12] | 7.43E+05 RLU | 2.79E+06 RLU | 4.07E+06 RLU | 4.15E+07 Photons/s | – |
| CCCCCCCCCOC(=O)C(C)CCCCCCN(CCCCO)CCCCCCCC(=O)OC(CCCCCCCC)CCCCCCCC (stereo not shown) [Compound 62, nonyl 8-((8-(heptadecan-9-yloxy)-8-oxooctyl)(4-hydroxybutyl)amino)-2-methyloctanoate] | 2.33E+06 RLU | 2.73E+06 RLU | 3.47E+07 RLU | 1.03E+10 Photons/s | – |
| CCCCCCCCC(CCCCCCCCF)OC(=O)CCCCCCCN(CCO)CCCCCC(=O)OC(CCCCCCCC)CCCCCCCC (stereo not shown) [Compound 35] | 1.57E+05 RLU | 4.43E+05 RLU | 4.52E+05 RLU | 1.51E+10 Photons/s | – |
| CCCCCCCCCCCCN(CCO)CCCCCC(=O)OCCCCCCCCCCC [Compound 42] | 2.36E+04 RLU | 1.91E+04 RLU | 5.65E+04 RLU | – | 2.04E+06 Photons/s |
| CCCCCCCCC(CCCCCCCCF)OC(=O)CCCCCCCN(CCO)CCCCCCCC(=O)OCCCCCCCCC(C)C (stereo not shown) [Compound 10] | 7.51E+05 RLU | 4.57E+05 RLU | 6.38E+05 RLU | 8.34E+09 Photons/s | – |
| CCCCCCCCC(CCCCCCCF)C(=O)OCCCCCCCN(CCO)CCCCCCCOC(=O)CCCCCCCC=C(C)C (stereo not shown) [Compound 52, 7-((7-((2-(7-fluoroheptyl)decanoyl)oxy)heptyl)(2-hydroxyethyl)amino)heptyl 10-methylundec-9-enoate] | 2.59E+05 RLU | 2.53E+05 RLU | 4.31E+05 RLU | 7.87E+09 Photons/s | – |
| CCCCCCCCC(CCCCCCCCF)OC(=O)CCCCCCCN(CCO)CCCCCC(=O)OCCCCCCC(C)C (stereo not shown) [Compound 57, 1-fluoroheptadecan-9-yl 8-((2-hydroxyethyl)(6-((7-methyloctyl)oxy)-6-oxohexyl)amino)octanoate] | 2.63E+06 RLU | 1.27E+06 RLU | 1.42E+07 RLU | 1.05E+10 Photons/s | – |
| CCCCCCCCCOC(=O)C(C)CCCCCCN(CCO)CCCCCCCC(=O)OC(CCCCCCCC)CCCCCCCC (stereo not shown) [Compound 37] | 7.63E+05 RLU | 2.66E+06 RLU | 1.00E+06 RLU | 6.65E+09 Photons/s | – |
